Results as given in patent publication US4399132A, “7-Beta-[alpha-syn-methoxyimino-alpha-(2-aminothiazol-4-yl)-aceta mido]-3-[(1,2,3-thiadiazol-5-ylthio)methyl]-3-cephem-4-carboxylic acid and C1 -C6 alkyl derivatives thereof” (American Cyanamid Company, priority 1981, dated 1983).
Values after ≈ are worked out from the molar mass of the structure shown. Where two headings read alike, the source gives them in different places.

Assays:
Test in all cases: Mueller-Hinton agar dilution method (MIC)
Format in all cases: cell-based
Acinetobacter sp. = details: read-out: Minimal Inhibitory Concentration
Klebsiella pneumoniae = details: Klebsiella pneumoniae
Citrobacter sp. = details: read-out: Minimal Inhibitory Concentration
Providencia stuartti = details: read-out: Minimal Inhibitory Concentration
Proteus rettgeri = details: Providencia rettgeri, read-out: Minimal Inhibitory Concentration
Staphylococcus aureus = tested on: Staphylococcus aureus
Salmonella (arizona) = details: read-out: Minimal Inhibitory Concentration
Pseudomonas aeruginosa = tested on: Pseudomonas aeruginosa
Serratia marcescens = details: read-out: Minimal Inhibitory Concentration
Klebsiella oxytoca = details: read-out: Minimal Inhibitory Concentration
Enterobacter aerogenes = details: Klebsiella aerogenes, read-out: Minimal Inhibitory Concentration, strain STFD-79-14
Proteus morganii = details: Morganella morganii, read-out: Minimal Inhibitory Concentration
Enterococcus sp. = details: Enterococcus
Escherichia coli = details: read-out: Minimal Inhibitory Concentration
Enterobacter cloacae = tested on: Enterobacter cloacae
Salmonella sp. = details: strain SSC-79-57, Table III, read-out: Minimal Inhibitory Concentration
From the text: (§1) The results appear in Tables I, II, and III.

Micrococcus luteus = details: read-out: Minimal Inhibitory Concentration
From the text: as §1

## CC(=O)OCC1=C(C(=O)O)N2C(=O)[C@@H](NC(=O)Cc3cccs3)[C@H]2SC1 [II]
Acinetobacter sp.
  MIC: > 128 µg/mL
Klebsiella pneumoniae; read-out: Minimal Inhibitory Concentration, strain AD, Table III
  MIC: 0.03 µg/mL (≈ 0.0757 µM)
Klebsiella pneumoniae; read-out: Minimal Inhibitory Concentration, strain SSC-78-1, Table I
  MIC: 1 µg/mL (≈ 2.52 µM)
Klebsiella pneumoniae; read-out: Minimal Inhibitory Concentration, strain SSC-78-1, Table III
  MIC: 1 µg/mL (≈ 2.52 µM)
Klebsiella pneumoniae; read-out: Minimal Inhibitory Concentration, strain STFD-79-6, Table III
  MIC: 0.5 µg/mL (≈ 1.26 µM)
Klebsiella pneumoniae; read-out: Minimal Inhibitory Concentration, strain STFD-79-16, Table I
  MIC: 1 µg/mL (≈ 2.52 µM)
Citrobacter sp.
  MIC: 1 µg/mL (≈ 2.52 µM)
Providencia stuartti
  MIC: > 128 µg/mL
Proteus rettgeri
  MIC: > 128 µg/mL
Staphylococcus aureus; read-out: Minimal Inhibitory Concentration, strain FU-79-19-2, Table I
  MIC: 0.5 µg/mL (≈ 1.26 µM)
Staphylococcus aureus; read-out: Minimal Inhibitory Concentration, strain FU-79-19-2, Table III
  MIC: 0.12 µg/mL (≈ 0.303 µM)
Staphylococcus aureus; read-out: Minimal Inhibitory Concentration, strain SSC-79-18, Table I
  MIC: 0.25 µg/mL (≈ 0.631 µM)
Staphylococcus aureus; read-out: Minimal Inhibitory Concentration, strain SSC-79-18, Table III
  MIC: 0.12 µg/mL (≈ 0.303 µM)
Staphylococcus aureus; read-out: Minimal Inhibitory Concentration, strain SSC-80-15, Table I
  MIC: 0.5 µg/mL (≈ 1.26 µM)
Staphylococcus aureus; read-out: Minimal Inhibitory Concentration, strain SSC-80-15, Table III
  MIC: 0.5 µg/mL (≈ 1.26 µM)
Staphylococcus aureus; read-out: Minimal Inhibitory Concentration, strain Smith, Table I
  MIC: 0.12 µg/mL (≈ 0.303 µM)
Staphylococcus aureus; read-out: Minimal Inhibitory Concentration, strain Smith, Table III
  MIC: 0.03 µg/mL (≈ 0.0757 µM)
Salmonella (arizona)
  MIC: 2 µg/mL (≈ 5.04 µM)
Pseudomonas aeruginosa; ATCC27853, read-out: Minimal Inhibitory Concentration
  MIC: > 128 µg/mL
Pseudomonas aeruginosa; read-out: Minimal Inhibitory Concentration
  MIC: > 128 µg/mL
Serratia marcescens
  MIC: > 128 µg/mL
Klebsiella oxytoca
  MIC: 2 µg/mL (≈ 5.04 µM)
Enterobacter aerogenes; Table I
  MIC: 128 µg/mL (≈ 323 µM)
Enterobacter aerogenes; Table III
  MIC: > 128 µg/mL
Proteus morganii
  MIC: > 128 µg/mL
Enterococcus sp.; read-out: Minimal Inhibitory Concentration, strain OSU-75-1, Table I
  MIC: 32 µg/mL (≈ 80.7 µM)
Enterococcus sp.; read-out: Minimal Inhibitory Concentration, strain OSU-75-1, Table III
  MIC: 16 µg/mL (≈ 40.4 µM)
Enterococcus sp.; read-out: Minimal Inhibitory Concentration, strain SM-77-15, Table I
  MIC: 32 µg/mL (≈ 80.7 µM)
Enterococcus sp.; read-out: Minimal Inhibitory Concentration, strain SM-77-15, Table III
  MIC: 16 µg/mL (≈ 40.4 µM)
Escherichia coli; ATCC25922, strain ATCC 25922, Table III
  MIC: 2 µg/mL (≈ 5.04 µM)
Escherichia coli; strain #311, Table I
  MIC: 4 µg/mL (≈ 10.1 µM)
Escherichia coli; strain #311, Table III
  MIC: 4 µg/mL (≈ 10.1 µM)
Escherichia coli; strain ESS 22-31, Table III
  MIC: ≤ 0.03 µg/mL
Escherichia coli; strain K-81-14, Table I
  MIC: 64 µg/mL (≈ 161 µM)
Escherichia coli; strain STFD-79-20, Table I
  MIC: 4 µg/mL (≈ 10.1 µM)
Escherichia coli; strain STFD-79-20, Table III
  MIC: 2 µg/mL (≈ 5.04 µM)
Enterobacter cloacae; read-out: Minimal Inhibitory Concentration, strain K-79-16, Table I
  MIC: > 128 µg/mL
Enterobacter cloacae; read-out: Minimal Inhibitory Concentration, strain K-79-16, Table III
  MIC: > 128 µg/mL
Enterobacter cloacae; read-out: Minimal Inhibitory Concentration, strain K-81-46, Table I
  MIC: 64 µg/mL (≈ 161 µM)
Salmonella sp.
  MIC: 64 µg/mL (≈ 161 µM)
Micrococcus luteus
  MIC: 0.03 µg/mL (≈ 0.0757 µM)
